# Source: PMC2798733 (Bioorganic & medicinal chemistry, 2008)
# Columns and labels:
# [1] = target: T1, rat TRPV1 (Rattus norvegicus, UniProt O35433); assay: biochemical; format: binding
# [2] = target: T1, rat TRPV1; details: for decrease in agonism on replacing or removing the 3-methoxy group of compound 1: comparator not given
# [3] = system: transient receptor potential vanilloid 1 (TRPV1) channel; details: cited from earlier work
# [4] = cited from earlier work
# [5] = system: TRPV1; details: cited from earlier work
# T1 sequence (O35433 whole entry): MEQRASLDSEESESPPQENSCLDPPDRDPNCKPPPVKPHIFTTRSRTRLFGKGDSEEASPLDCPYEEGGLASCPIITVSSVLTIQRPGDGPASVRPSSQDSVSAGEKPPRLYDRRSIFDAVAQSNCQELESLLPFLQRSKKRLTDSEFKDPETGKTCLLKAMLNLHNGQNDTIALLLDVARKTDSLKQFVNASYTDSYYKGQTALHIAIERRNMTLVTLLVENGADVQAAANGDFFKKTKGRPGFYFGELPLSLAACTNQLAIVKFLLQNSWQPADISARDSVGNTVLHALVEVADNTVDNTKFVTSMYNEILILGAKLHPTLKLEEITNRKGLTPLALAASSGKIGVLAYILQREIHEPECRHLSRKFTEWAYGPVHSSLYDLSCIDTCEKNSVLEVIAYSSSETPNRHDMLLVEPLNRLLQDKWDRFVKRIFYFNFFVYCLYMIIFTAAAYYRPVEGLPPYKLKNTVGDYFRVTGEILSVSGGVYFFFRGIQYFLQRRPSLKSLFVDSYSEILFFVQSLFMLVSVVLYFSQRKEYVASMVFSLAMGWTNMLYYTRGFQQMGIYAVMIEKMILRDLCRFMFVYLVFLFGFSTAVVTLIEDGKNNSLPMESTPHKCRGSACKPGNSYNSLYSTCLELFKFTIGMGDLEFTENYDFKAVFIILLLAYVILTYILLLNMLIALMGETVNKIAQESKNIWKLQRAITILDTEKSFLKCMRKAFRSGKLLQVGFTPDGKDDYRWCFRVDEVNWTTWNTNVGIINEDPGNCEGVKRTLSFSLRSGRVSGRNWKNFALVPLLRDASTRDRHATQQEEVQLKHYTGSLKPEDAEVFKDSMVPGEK
smiles,measurement,setting,value
"C=C(C)[C@@]12C[C@@H](C)[C@@]34OC(Cc5ccccc5)(O[C@@H]1[C@@H]3C=C(COC(=O)Cc1ccc(NS(C)(=O)=O)c(OC)c1)C[C@]1(O)C(=O)C(C)=C[C@@H]41)O2 [Compound 1, 3-Methoxy-4-(methylsulfonylamino) analogue]",reduction in binding affinity compared to RTX,[1],5 fold
same,enhancement of functional activity (agonism) compared to RTX,[2],2.5 fold
"C=C(C)[C@@]12C[C@@H](C)[C@@]34OC(Cc5ccccc5)(O[C@@H]1[C@@H]3C=C(COC(=O)Cc1ccc(NS(C)(=O)=O)c(F)c1)C[C@]1(O)C(=O)C(C)=C[C@@H]41)O2 [Compound 2, 3-Fluoro-4-(methylsulfonylamino) analogue]",decrease in agonism on replacing or removing the 3-methoxy group of compound 1,[2],9 fold
"C=C(C)[C@@]12C[C@@H](C)[C@@]34OC(Cc5ccccc5)(O[C@@H]1[C@@H]3C=C(COC(=O)Cc1ccc(NS(C)(=O)=O)cc1)C[C@]1(O)C(=O)C(C)=C[C@@H]41)O2 [Compound 3, 4-(Methylsulfonylamino) analogue]",decrease in agonism on replacing or removing the 3-methoxy group of compound 1,[2],7 fold
"C=C(C)[C@@]12C[C@@H](C)[C@@]34OC(Cc5ccccc5)(O[C@@H]1[C@@H]3C=C(COC(=O)Cc1ccccc1F)C[C@]1(O)C(=O)C(C)=C[C@@H]41)O2 [Compound 4, 2-Fluoro analogue]",Ki,[1],0.73 nM
"C=C(C)[C@@]12C[C@@H](C)[C@@]34OC(Cc5ccccc5)(O[C@@H]1[C@@H]3C=C(COC(=O)Cc1ccc(F)cc1F)C[C@]1(O)C(=O)C(C)=C[C@@H]41)O2 [Compound 8, 2,4-Difluoro analogue]",relative agonism compared to RTX,[2]; compared to RTX,0.15
"C=C(C)[C@@]12C[C@@H](C)[C@@]34OC(Cc5ccccc5)(O[C@@H]1[C@@H]3C=C(COC(=O)Cc1cc(F)ccc1F)C[C@]1(O)C(=O)C(C)=C[C@@H]41)O2 [Compound 9, 2,5-Difluoro analogue]",relative affinity compared to RTX,[1]; compared to RTX,0.1
"C=C(C)[C@@]12C[C@@H](C)[C@@]34OC(Cc5ccccc5)(O[C@@H]1[C@@H]3C=C(CNC(=O)Cc1ccc(NS(C)(=O)=O)cc1)C[C@]1(O)C(=O)C(C)=C[C@@H]41)O2 [Compound 14, Amide analogue]","drop in binding, amide versus ester compound 3",[1]; compared to compound 3,50 fold
same,"drop in agonism, amide versus ester compound 3",[2]; compared to compound 3,210 fold
"C=C(C)[C@]12C[C@@H](C)[C@@]34O[C@](Cc5ccccc5)(O[C@@H]1[C@@H]3C=C(COC(=O)Cc1ccc(O)c(OC)c1)C[C@]1(O)C(=O)C(C)=C[C@@H]41)O2 [RTX, Resiniferatoxin]",greater potency than the prototypic agonist capsaicin,[3],10^3- to 10^4 fold
C=C(C)[C@]12C[C@@H](C)[C@@]34O[C@](Cc5ccccc5)(O[C@@H]1[C@@H]3C=C(COC(=O)Cc1ccc(O)cc1)C[C@]1(O)C(=O)C(C)=C[C@@H]41)O2 [tinyatoxin],loss of biological potency compared to RTX,[4],6 fold
same,decrease in binding potency compared to RTX,[5],3 fold
